Laboratory results published in patent US20070049564A1 (Wyeth, priority 2005, published 2007).
≈ marks a conversion by molar mass, not a printed value. Read-outs that look alike come from different tables or passages of the source.

How the values were obtained:
[1] = tested on: E. coli GC 1073; test: MIC, broth microdilution; conditions: Escherichia coli
[2] = tested on: Staph.; test: Range of MIC for Staph. strains, including MRSA; conditions: Staphylococcus aureus
[3] = tested on: E. coli; test: Range of MIC for E. coli strains; conditions: Escherichia coli
[4] = tested on: E. faecalis GC 2242; test: MIC, broth microdilution; conditions: Enterococcus faecalis
[5] = tested on: E. coli GC 4560; test: MIC, broth microdilution; conditions: Escherichia coli
[6] = tested on: E. faecalis GC 2265; test: MIC, broth microdilution; conditions: Enterococcus faecalis
[7] = tested on: E. coli GC 2270; test: MIC, broth microdilution; conditions: Escherichia coli
[8] = tested on: S. aureus GC 4536; test: MIC, broth microdilution; conditions: Staphylococcus aureus
[9] = tested on: E. coli GC 2203; test: MIC, broth microdilution; conditions: Escherichia coli
[10] = tested on: S. aureus GC 6469; test: MIC, broth microdilution; conditions: Staphylococcus aureus
[11] = tested on: E. coli GC 2235; test: MIC, broth microdilution; conditions: Escherichia coli
[12] = tested on: S. aureus GC 6467; test: MIC, broth microdilution; conditions: Staphylococcus aureus
[13] = tested on: E. coli GC 2271; test: MIC, broth microdilution; conditions: Escherichia coli
[14] = tested on: P. aeruginosa GC 2214; test: MIC, broth microdilution; conditions: Pseudomonas aeruginosa
[15] = tested on: S. agalactiae GC 4564; test: MIC, broth microdilution; conditions: Streptococcus agalactiae
[16] = tested on: E. coli GC 6465; test: MIC, broth microdilution; conditions: Escherichia coli
[17] = tested on: E. coli GC 2233; test: MIC, broth microdilution; conditions: Escherichia coli
Experimental: Antimicrobial susceptibility testing. The in vitro activities of the antibiotics are determined by the broth microdilution method as recommended by the National Committee for Clinical Laboratory Standards (NCCLS) (1). Mueller-Hinton II broth (MHBII)(BBL Cockeysville, Md.) is the medium employed in the testing procedures. Microtiter plates containing serial dilutions of each antimicrobial agent are inoculated with each organism to yield the appropriate density (10^5 CFU/ml) in a 100 μl final volume. The plates are incubated for 18-22 hours at 35° C. in ambient air.
Representative compounds were first incubated in mouse serum for an hour prior to the in vitro testing against a panel of selected gram-positive and gram-negative bacteria strains. All compounds were also pre-incubated in water for an hour prior to testing as control.

[18] = tested on: E. faecalis GC 4555; test: MIC, broth microdilution; conditions: Enterococcus faecalis
[19] = tested on: E. coli GC 4559; test: MIC, broth microdilution; conditions: Escherichia coli
[20] = tested on: E. coli GC 2236; test: MIC, broth microdilution; conditions: Escherichia coli
Experimental: Antimicrobial susceptibility testing. The in vitro activities of the antibiotics are determined by the broth microdilution method as recommended by the National Committee for Clinical Laboratory Standards (NCCLS) (1). Mueller-Hinton II broth (MHBII)(BBL Cockeysville, Md.) is the medium employed in the testing procedures. Microtiter plates containing serial dilutions of each antimicrobial agent are inoculated with each organism to yield the appropriate density (10^5 CFU/ml) in a 100 μl final volume. The plates are incubated for 18-22 hours at 35° C. in ambient air. […] Standard Pharmacological Test Procedures
Presented in Tables I-XIII are representative compounds of Formula I which were evaluated against a panel of 40 selected gram-positive and gram-negative bacteria strains by pre-incubation in water, mouse serum or human serum. Representative compounds were first incubated in mouse serum for an hour prior to the in vitro testing against a panel of selected gram-positive and gram-negative bacteria strains. All compounds were also pre-incubated in water for an hour prior to testing as control. Representative compounds of Formula I were incubated in human serum prior to MIC determination.

Which results are given for CN(C)c1cc(NC(=O)CN(C(=O)OCOC(=O)c2ccc(C(C)(C)C)cc2)C(C)(C)C)c(O)c2c1C[C@H]1C[C@H]3[C@H](N(C)C)C(O)=C(C(N)=O)C(=O)[C@@]3(O)C(O)=C1C2=O [Example 43, ({[(2-{[(5aR,6aS,7S,10aS)-9-(aminocarbonyl)-4,7-bis(dimethylamino)-1,8,10a,11-tetrahydroxy-10,12-dioxo-5,5a,6,6a,7,10,10a,12-octahydrotetracen-2-yl]amino}-2-oxoethyl)(tert-butyl)amino]carbonyl}oxy)methyl 4-tert-butylbenzoate]?
MIC ([1]; GC1073, read-out: MINIMAL INHIBITORY CONCENTRATION MIC, pre-incubated in Human Serum): > 64 µg/mL; MIC ([1]; GC1073, read-out: MINIMAL INHIBITORY CONCENTRATION MIC, pre-incubated in Mouse Serum): 0.5 µg/mL (≈ 0.61 µM); MIC ([1]; GC1073, read-out: MINIMAL INHIBITORY CONCENTRATION MIC, pre-incubated in Water): > 64 µg/mL; MIC ([2]; MRSA, read-out: Range of MIC, Staph (Mouse Serum)): 0.5 to 2 µg/mL (≈ 0.61 to 2.44 µM); MIC ([2]; read-out: Minimum inhibitory concentration (MIC), Staph (Human Serum)): 4 to 64 µg/mL (≈ 4.88 to 78.1 µM); MIC ([3]; 20 h, read-out: Range of MIC, E. coli (Mouse Serum)): 0.25 to 2 µg/mL (≈ 0.305 to 2.44 µM); MIC ([3]; read-out: Minimum inhibitory concentration (MIC), E. coli (Human Serum)): > 64 µg/mL; MIC ([3]; read-out: Minimum inhibitory concentration (MIC), E. coli (water)): > 64 µg/mL; MIC ([3]; read-out: Range of MIC, E. coli (Water)): > 64 µg/mL; MIC ([4]; GC2242, read-out: MINIMAL INHIBITORY CONCENTRATION MIC, pre-incubated in Human Serum): 4 µg/mL (≈ 4.88 µM); MIC ([4]; GC2242, read-out: MINIMAL INHIBITORY CONCENTRATION MIC, pre-incubated in Mouse Serum): 0.5 µg/mL (≈ 0.61 µM); MIC ([4]; GC2242, read-out: MINIMAL INHIBITORY CONCENTRATION MIC, pre-incubated in Water): 16 µg/mL (≈ 19.5 µM); MIC ([5]; GC4560, read-out: MINIMAL INHIBITORY CONCENTRATION MIC, pre-incubated in Human Serum): 16 µg/mL (≈ 19.5 µM); MIC ([5]; GC4560, read-out: MINIMAL INHIBITORY CONCENTRATION MIC, pre-incubated in Mouse Serum): < 0.06 µg/mL; MIC ([5]; GC4560, read-out: MINIMAL INHIBITORY CONCENTRATION MIC, pre-incubated in Water): 32 µg/mL (≈ 39 µM); MIC ([6]; GC2265, read-out: MINIMAL INHIBITORY CONCENTRATION MIC, pre-incubated in Human Serum): 8 µg/mL (≈ 9.76 µM); MIC ([6]; GC2265, read-out: MINIMAL INHIBITORY CONCENTRATION MIC, pre-incubated in Mouse Serum): 0.5 µg/mL (≈ 0.61 µM); MIC ([6]; GC2265, read-out: MINIMAL INHIBITORY CONCENTRATION MIC, pre-incubated in Water): 32 µg/mL (≈ 39 µM); MIC ([7]; GC2270, read-out: MINIMAL INHIBITORY CONCENTRATION MIC, pre-incubated in Human Serum): > 64 µg/mL; MIC ([7]; GC2270, read-out: MINIMAL INHIBITORY CONCENTRATION MIC, pre-incubated in Mouse Serum): 0.25 µg/mL (≈ 0.305 µM); MIC ([7]; GC2270, read-out: MINIMAL INHIBITORY CONCENTRATION MIC, pre-incubated in Water): > 64 µg/mL; MIC ([8]; GC4536, read-out: MINIMAL INHIBITORY CONCENTRATION MIC, pre-incubated in Human Serum): 16 µg/mL (≈ 19.5 µM); MIC ([8]; GC4536, read-out: MINIMAL INHIBITORY CONCENTRATION MIC, pre-incubated in Mouse Serum): 1 µg/mL (≈ 1.22 µM); MIC ([8]; GC4536, read-out: MINIMAL INHIBITORY CONCENTRATION MIC, pre-incubated in Water): 32 µg/mL (≈ 39 µM); MIC ([9]; GC2203, read-out: MINIMAL INHIBITORY CONCENTRATION MIC, pre-incubated in Human Serum): > 64 µg/mL; MIC ([9]; GC2203, read-out: MINIMAL INHIBITORY CONCENTRATION MIC, pre-incubated in Mouse Serum): 0.5 µg/mL (≈ 0.61 µM); MIC ([9]; GC2203, read-out: MINIMAL INHIBITORY CONCENTRATION MIC, pre-incubated in Water): > 64 µg/mL; MIC ([10]; GC6469, read-out: MINIMAL INHIBITORY CONCENTRATION MIC, pre-incubated in Human Serum): 32 µg/mL (≈ 39 µM); MIC ([10]; GC6469, read-out: MINIMAL INHIBITORY CONCENTRATION MIC, pre-incubated in Mouse Serum): 1 µg/mL (≈ 1.22 µM); MIC ([10]; GC6469, read-out: MINIMAL INHIBITORY CONCENTRATION MIC, pre-incubated in Water): > 64 µg/mL; MIC ([11]; GC2235, read-out: MINIMAL INHIBITORY CONCENTRATION MIC, pre-incubated in Human Serum): > 64 µg/mL; MIC ([11]; GC2235, read-out: MINIMAL INHIBITORY CONCENTRATION MIC, pre-incubated in Mouse Serum): 0.25 µg/mL (≈ 0.305 µM); MIC ([11]; GC2235, read-out: MINIMAL INHIBITORY CONCENTRATION MIC, pre-incubated in Water): > 64 µg/mL; MIC ([12]; GC6467, read-out: MINIMAL INHIBITORY CONCENTRATION MIC, pre-incubated in Human Serum): 32 µg/mL (≈ 39 µM); MIC ([12]; GC6467, read-out: MINIMAL INHIBITORY CONCENTRATION MIC, pre-incubated in Mouse Serum): 0.5 µg/mL (≈ 0.61 µM); MIC ([12]; GC6467, read-out: MINIMAL INHIBITORY CONCENTRATION MIC, pre-incubated in Water): > 64 µg/mL; MIC ([13]; GC2271, read-out: MINIMAL INHIBITORY CONCENTRATION MIC, pre-incubated in Human Serum): > 64 µg/mL; MIC ([13]; GC2271, read-out: MINIMAL INHIBITORY CONCENTRATION MIC, pre-incubated in Mouse Serum): 0.25 µg/mL (≈ 0.305 µM); MIC ([13]; GC2271, read-out: MINIMAL INHIBITORY CONCENTRATION MIC, pre-incubated in Water): > 64 µg/mL; MIC ([14]; GC2214, read-out: MINIMAL INHIBITORY CONCENTRATION MIC, pre-incubated in Human Serum): > 64 µg/mL; MIC ([14]; GC2214, read-out: MINIMAL INHIBITORY CONCENTRATION MIC, pre-incubated in Mouse Serum): 16 µg/mL (≈ 19.5 µM); MIC ([14]; GC2214, read-out: MINIMAL INHIBITORY CONCENTRATION MIC, pre-incubated in Water): > 64 µg/mL; MIC ([15]; GC4564, read-out: MINIMAL INHIBITORY CONCENTRATION MIC, pre-incubated in Human Serum): 2 µg/mL (≈ 2.44 µM); MIC ([15]; GC4564, read-out: MINIMAL INHIBITORY CONCENTRATION MIC, pre-incubated in Mouse Serum): < 0.06 µg/mL; MIC ([15]; GC4564, read-out: MINIMAL INHIBITORY CONCENTRATION MIC, pre-incubated in Water): 2 µg/mL (≈ 2.44 µM); MIC ([16]; GC6465, read-out: MINIMAL INHIBITORY CONCENTRATION MIC, pre-incubated in Human Serum): > 64 µg/mL; MIC ([16]; GC6465, read-out: MINIMAL INHIBITORY CONCENTRATION MIC, pre-incubated in Mouse Serum): 2 µg/mL (≈ 2.44 µM); MIC ([16]; GC6465, read-out: MINIMAL INHIBITORY CONCENTRATION MIC, pre-incubated in Water): > 64 µg/mL; MIC ([17]; GC2233, read-out: MINIMAL INHIBITORY CONCENTRATION MIC, pre-incubated in Human Serum): > 64 µg/mL; MIC ([17]; GC2233, read-out: MINIMAL INHIBITORY CONCENTRATION MIC, pre-incubated in Mouse Serum): 0.5 µg/mL (≈ 0.61 µM); MIC ([17]; GC2233, read-out: MINIMAL INHIBITORY CONCENTRATION MIC, pre-incubated in Water): > 64 µg/mL; MIC ([18]; GC4555, read-out: MINIMAL INHIBITORY CONCENTRATION MIC, pre-incubated in Human Serum): 8 µg/mL (≈ 9.76 µM); MIC ([18]; GC4555, read-out: MINIMAL INHIBITORY CONCENTRATION MIC, pre-incubated in Mouse Serum): 0.5 µg/mL (≈ 0.61 µM); MIC ([18]; GC4555, read-out: MINIMAL INHIBITORY CONCENTRATION MIC, pre-incubated in Water): 32 µg/mL (≈ 39 µM); MIC ([19]; GC4559, read-out: MINIMAL INHIBITORY CONCENTRATION MIC, pre-incubated in Human Serum): > 64 µg/mL; MIC ([19]; GC4559, read-out: MINIMAL INHIBITORY CONCENTRATION MIC, pre-incubated in Mouse Serum): 0.5 µg/mL (≈ 0.61 µM); MIC ([19]; GC4559, read-out: MINIMAL INHIBITORY CONCENTRATION MIC, pre-incubated in Water): > 64 µg/mL; MIC ([20]; GC2236, read-out: MINIMAL INHIBITORY CONCENTRATION MIC, pre-incubated in Human Serum): > 64 µg/mL; MIC ([20]; GC2236, read-out: MINIMAL INHIBITORY CONCENTRATION MIC, pre-incubated in Mouse Serum): 0.5 µg/mL (≈ 0.61 µM); MIC ([20]; GC2236, read-out: MINIMAL INHIBITORY CONCENTRATION MIC, pre-incubated in Water): > 64 µg/mL
